The target of this assay is T1, glucokinase (GK) (Homo sapiens, UniProt P35557).
T1 construct: I.D. No. 1 corresponds to residues 12-465 of glucokinase; made in house; host or cells: E. coli DH10b-T1r
T1 sequence (P35557 with tags, fused parts or gaps isoform P35557-2): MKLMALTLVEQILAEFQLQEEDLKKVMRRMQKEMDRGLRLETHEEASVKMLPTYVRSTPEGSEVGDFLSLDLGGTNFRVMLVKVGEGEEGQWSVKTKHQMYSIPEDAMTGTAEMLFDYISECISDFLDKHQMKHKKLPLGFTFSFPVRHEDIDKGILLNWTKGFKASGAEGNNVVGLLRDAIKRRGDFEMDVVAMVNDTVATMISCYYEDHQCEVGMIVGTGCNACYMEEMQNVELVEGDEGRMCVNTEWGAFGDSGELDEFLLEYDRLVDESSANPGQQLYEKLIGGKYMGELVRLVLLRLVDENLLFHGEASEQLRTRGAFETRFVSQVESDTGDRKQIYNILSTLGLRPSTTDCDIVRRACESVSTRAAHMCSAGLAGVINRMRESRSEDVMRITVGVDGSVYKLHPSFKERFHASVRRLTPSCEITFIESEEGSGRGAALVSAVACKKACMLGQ
As to the kind of experiment: enzymatic glucokinase activity assay (ATP consumption, KinaseGlo luminescence). In kind it is biochemical. The following applies: recombinant GK residues 12-465; 5 μM ATP, 5 mM Glucose; Kact = concentration that displays 50% of the maximal increase in GK activity; read-out: pKact. The procedure, abridged:
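Activation was scored as ATP consumption, quantified by KinaseGlo luciferase luminescence after a 60 min room-temperature reaction. Reactions contained E. coli-expressed, purified GK, 5 μM ATP, 5 mM glucose, 10 mM MgCl2, 0.01% Brij35 and 2% DMSO at pH 7.2; pKact was fitted non-linearly.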

Where a name gives a salt, the structure may show the parent alone.

With `Cn1ccc(NC(=O)[C@@H](CC2CCOCC2)n2ccc(S(=O)(=O)C3CC3)cc2=O)n1` [Example 73, (R)-2-(4-(cyclopropylsulfonyl)-2-oxopyridin-1(2H)-yl)-N-(1-methyl-1H-pyrazol-3-yl)-3-(tetrahydro-2H-pyran-4-yl)propanamide], the EC50 is over 15.8 µM. As for `Cc1cc(S(=O)(=O)C2CCCC2)cc(=O)n1[C@@H](CC1CCOCC1)C(=O)Nc1ccc(F)cn1` [Example 165, (S)-2-(4-(cyclopentylsulfonyl)-6-methyl-2-oxopyridin-1(2H)-yl)-N-(5-fluoropyridin-2-yl)-3-(tetrahydro-2H-pyran-4-yl)propanamide], the figure is 1.58 to 15.8 µM; as for `O=C(Nc1ncc(F)s1)C(CC1CCOCC1)n1cc(Cl)c(S(=O)(=O)C2CCCC2)cc1=O` (stereo not drawn) [Example 186, 2-(5-chloro-4-(cyclopentylsulfonyl)-2-oxopyridin-1(2H)-yl)-N-(5-fluorothiazol-2-yl)-3-(tetrahydro-2H-pyran-4-yl)propanamide], 1.58 to 15.8 µM; as for `O=C(Nc1nccs1)C(CC1CCCCC1)n1ccc(S(=O)(=O)C2CCCC2)cc1=O` (stereo not drawn) [Example 8, 3-cyclohexyl-2-(4-(cyclopentylsulfonyl)-2-oxopyridin-1(2H)-yl)-N-(thiazol-2-yl)propanamide trifluoroacetic acid salt], under 1.58 µM. The value for `Cc1cc(-c2ccccc2F)cc(=O)n1[C@@H](CC1CCCCC1)C(=O)Nc1nccs1` [Example 110, (S)-3-cyclohexyl-2-(4-(2-fluorophenyl)-6-methyl-2-oxopyridin-1(2H)-yl)-N-(thiazol-2-yl)propanamide] was over 15.8 µM; that for `COc1ccc2nc(NC(=O)[C@H](CC3CCOCC3)n3ccc(S(=O)(=O)C4CC4)cc3=O)sc2n1` [Example 49, (S)-2-(4-(cyclopropylsulfonyl)-2-oxopyridin-1(2H)-yl)-N-(5-methoxythiazolo[5,4-b]pyridin-2-yl)-3-(tetrahydro-2H-pyran-4-yl)propanamide] was under 1.58 µM; that for `COc1cccc(-c2cc(C)n([C@@H](CC3CCCCC3)C(=O)Nc3nccs3)c(=O)c2)c1` [Example 95, (S)-3-cyclohexyl-2-(4-(3-methoxyphenyl)-6-methyl-2-oxopyridin-1(2H)-yl)-N-(thiazol-2-yl)propanamide] was 1.58 to 15.8 µM. Consider `Cc1ccc(CC(C(=O)Nc2nccs2)n2c(C)cc(S(=O)(=O)C3CCCC3)cc2=O)cc1` (stereo not drawn) [Example 10, 2-(4-(cyclopentylsulfonyl)-6-methyl-2-oxopyridin-1(2H)-yl)-N-(thiazol-2-yl)-3-p-tolylpropanamide], for which the EC50 is over 15.8 µM.

As to `CNS(=O)(=O)c1ccc(-c2cc(C)n([C@@H](CC3CCCCC3)C(=O)Nc3nccs3)c(=O)c2)cc1` [Example 115, (S)-3-cyclohexyl-2-(6-methyl-4-(4-(N-methylsulfamoyl)phenyl)-2-oxopyridin-1(2H)-yl)-N-(thiazol-2-yl)propanamide], the EC50 was over 15.8 µM.

In the case of `Cc1c(S(=O)(=O)C2CCCC2)c(C)c(=O)n([C@H](CC2CCOCC2)C(=O)Nc2ncc(Cl)s2)c1C` [Example 136, (R)-N-(5-chlorothiazol-2-yl)-2-(4-(cyclopentylsulfonyl)-3,5,6-trimethyl-2-oxopyridin-1(2H)-yl)-3-(tetrahydro-2H-pyran-4-yl)propanamide], the EC50 is 1.58 to 15.8 µM.

With `Cc1cc(-c2ccc(Cl)cc2)cc(=O)n1[C@@H](CC1CCCCC1)C(=O)Nc1nccs1` [Example 93, (S)-2-(4-(4-chlorophenyl)-6-methyl-2-oxopyridin-1(2H)-yl)-3-cyclohexyl-N-(thiazol-2-yl)propanamide], the EC50 is over 15.8 µM. As to `Cc1cc(S(=O)(=O)C2CCCC2)cc(=O)n1C(CC1CCOCC1)C(=O)Nc1nccs1` (stereo not drawn) [Example 16, 2-(4-(cyclopentylsulfonyl)-6-methyl-2-oxopyridin-1(2H)-yl)-3-(tetrahydro-2H-pyran-4-yl)-N-(thiazol-2-yl)propanamide], the EC50 was 1.58 to 15.8 µM.

The record behind these values is patent US8163779B2, “Glucokinase activators” (Takeda San Diego, Inc., priority 2006, dated 2012).
